Results published in patent publication US12263139B2, “Use of cannabidiol in the treatment of tuberous sclerosis complex” (Jazz Pharmaceuticals Research UK Limited, priority 2017, dated 2025).

Key:
[1] = test system: Tsc2−/− MEFs; experiment: Tumour spheroid growth (soft agar) assay in Tsc2−/− MEFs; type: cell-based, mouse; details: 10 μM CBD
Description: (ii) Tsc2−/− p53−/− and Tsc2+/+p53−/− mouse embryonic fibroblast (MEF) cell lines (now referred to as Tsc2−/− and Tsc2+/+, respectively).
(§1) The stock concentration of CBD was made to 20 mM in dimethyl sulfoxide (DMSO). CBD was added to culture media to final concentrations of either 5 μM or 10 μM, as indicated). The final concentration of the DMSO in the cell culture medium was at a maximum level of 0.05% (v/v).
(§2) Two-layered soft agar assays were carried out in 6-well plates. All cell lines were plated in complete DMEM media in 0.35% (v/v) agar at (3*10^5) over a 0.6% (v/v) agar layer. The agar was then overlaid with complete DMEM media and spheroids were grown for 14 days at 37° C. in 5% CO2. Media were changed twice a week and new drug was added to media. Pictures were taken using an inverted AMG EVOS microscope equipped with an Olympus camera. Volume of tumour spheroids was measured using ImageJ software.

[2] = test system: AML 621-101 cells; experiment: Tumour spheroid growth (soft agar) assay in AML 621-101 cells; type: cell-based; details: 10 μM CBD
Description: (i) Angiomyolipomas (AML) cells derived from a Tuberous Sclerosis Complex patient (621-101 cell-line), with a known loss of function of TSC2. […] Zeocin™ was purchased from LifeTechnologies (cat no: R25001) and was used to originally generate the stable cell line (by Prof. Lisa Henske) over two weeks of Zeocin™ selection and then for continued maintenance of the cells in tissue culture (at 100 μg/ml).
as §1, §2

[3] = test system: pS6 positive cells; experiment: Number of pS6 positive cells in zebrafish model of TSC; type: in vivo; details: for effect on average number of pS6 positive cells: Danieau's incubated
Source text: A zebrafish model of TSC with a tsc2 gene deletion was used. This model has been previously published and validated (Kim et al. 2011). By mating the gene deletion animals with wild-type tsc2+/+ animals, heterozygote (tsc2+/−) zebrafish were also obtained and tested in this example.
For both pS6 and TUNEL staining, non-consecutive sections were imaged using a Zeiss AxioImager microscope. Exposure time was kept constant during image acquisition and determined by the observation of a slide where primary antibody or enzyme solution was omitted. Pictures were taken with a 20× objective, using the AxioVision software, and coloured using Fiji ImageJ. All counting and measuring of cells was done in the original black and white pictures.
Statistical analysis was performed in SPSS (IBM SPSS Statistics 22), except for the chi-square test, which was done using GraphPad Prism 5. Normality and sphericity were tested using the Kolmogorov-Smirnov and Mauchly's tests, respectively. Repeated measures two-way ANOVA tests were used to analyse the locomotor assay data and cell number, while a three-way ANOVA test was used to analyse cell size. Touch response (TR) between genotypes and treatments was analysed by chi-square test. Tests were followed by Tukey or Bonferroni post-hoc tests.
To explore mTOR pathway activation in the different genotypes and treatments, immunohistochemistry was performed using a pS6 (Ser235/236) antibody.
To better understand the apparent differences between groups, pS6 positive cells were counted for each genotype and treatment. A significant main effect of genotype was found, with tsc2−/− zebrafish sections showing more pS6 positive cells in the brain than tsc2+/+ and tsc2+/−(+173.3%) (FIG. 4A).

[4] = test system: Miapaca; experiment: Drug combination assay (MTT, CalcuSyn) of Rad001 and CBD in Miapaca; type: cell-based, Homo sapiens
Description: For the study of the synergism between Rad001 and CBD on pancreatic cell lines Miapaca was tested, the cells were seeded in 96-multiwell plates at the density of 3.8 10^3 cells/well. After 24 hr incubation at 37° C., the cells were treated with different concentrations of Rad001 and CBD. Different molar ratios between two drugs in different sequences of administration were tested, (Rad001 for 48 h and CBD for 72 h or Rad001 for 72 h and CBD for 48 h and in co-administration for 72 h.
The proliferative response was estimated by colorimetric 3-(4,5 di-methylthiazol-2-yl)-2,5-diphenyltetrazolium bromide (MIT) test. MTT conversion to formazan by metabolically viable cells was monitored by spectrophotometer at an optical density of 570 nm. Each data point represents the average of three separate experiments with each experiment containing four wells. Drug combination studies were based on concentration-effect curves generated as a plot of the fraction of unaffected (surviving) cells versus drug concentration after treatment.
To explore the relative contribution of each agent to the synergism equi-active doses of […] were tested (IC50). Assessment of synergy was performed quantitating drug interaction by Calcusyn computer program (Biosoft, Ferguson, MO). Combination index (CI) values of <1, 1, and >1 indicate synergy, additivity and antagonism, respectively.
Dose reduction index (DRI) representing the measure of how much the dose of each drug in a combination may be reduced at a given effect level compared with the doses of each drug alone.
The effects of the pharmacological combination between CBD and RAD001 on the proliferation MIAPACA cell lines, using MTT assay were studied. The data obtained were processed with dedicated program, CalcuSyn (Chou and Talalay, Biosoft, Oregon, USA), which measures synergism.
The specific contribution of CBD and Rad001 on the cytotoxic effect of the combination of drugs was analyzed by calculating the potentiation factor (PF) defined as the ratio of the IC50 of either CBD or Rad001 alone to the IC50 of CBD and Rad001 in combination. A higher PF indicates a greater cytotoxicity.

Q: `C=C(C)[C@@H]1CCC(C)=C[C@H]1c1c(O)cc(CCCCC)cc1O` [CBD, Cannabidiol] was tested. Which “inhibition of tumour spheroid diameter” value [1] did it give?
A: Significance to inhibit tumour spheroid diameter was observed

Q: What about the tumour spheroid formation [2] of the same compound?
A: sufficient to block tumour spheroid formation

Q: What about the “change in average number of pS6 positive cells” value (“change in average number” below) ([3]; main effect of treatment, compared to DMSO group, FIG. 4B) of the same compound?
A: −77.1%

Q: What about the “change in average number” value ([3]; main effect of treatment, compared to Danieau's group, FIG. 4B) of the same compound?
A: −63.2%

Q: What about the “effect on average number of pS6 positive cells” value ([3]; tsc2+/+ zebrafish) of the same compound?
A: no significant effect

Q: And the “effect on average number of pS6 positive cells” value ([3]; tsc2+/− zebrafish)?
A: no significant effect

Q: What about the “change in average number” value ([3]; tsc2−/− zebrafish, for the DMSO group, FIG. 4C) of the same compound?
A: −58.9%

Q: What about the “change in average number” value ([3]; tsc2−/− zebrafish, for the Danieau's group, FIG. 4C) of the same compound?
A: −55.4%

Q: What about the IC50 ([4]; Homo sapiens, MIA PaCa-2, Miapaca, 50% effect level, read-out: Dose of drug alone) of the same compound?
A: 3.6 µM

Q: And the DRI50 ([4]; Miapaca, Rad/CBD combination, dose reduction index)?
A: CBD 7.1

Q: What about the “potentiation factor (PF)” value ([4]; ratio of IC50 alone to IC50 of CBD and Rad001 in combination) of the same compound?
A: 8
